Experimental data taken from US20140296178A1, “Combination Therapy with a Gallium Complex” (priority 2010, published 2014).

System: multiple myeloma tumor cell line RPMI 8226
Assay: Promega Cell Titer-Glo antiproliferative assay, single agent and combination
Format: cell-based, human
Conditions: unit from figure X axis
Experimental: The antiproliferative activity of tris(8-quinolinolato)gallium(III) and lenalidomide against the human multiple myeloma tumor cell line RPMI 8226 was determined with Promega's Cell Titer-Glo® assay. The human tumor cells were placed in a 96-well microculture plate at the appropriate density for 96 hours of total growth time. After 24 hours of incubation in a humidified incubator at 37° C. with 5% CO2 and 95% air, serially diluted test agents in growth medium were added to each well. After 96 total hours of culture in a CO2 incubator, the plates were processed with Cell Titer-Glo (Promega #G7571) according to manufacturer's instructions. Luminescence was detected using a Tecan GENios microplate reader. Percent inhibition of cell growth was calculated relative to untreated control wells. All tests were performed in duplicate at each concentration level. The IC50 value for the test agents was estimated using Prism 3.03 by curve-fitting the data using the following four parameter-logistic equation: […]
The same Promega Cell Titer-Glo® assay described above was used in the combination study. […] After 96 hours, the cell number was determined with the Cell Titer Glo® assay as described above. […]

[Ga+3].[O-]c1cccc2cccnc12.[O-]c1cccc2cccnc12.[O-]c1cccc2cccnc12 [tris(8-quinolinolato)gallium(III)]
IC50 (RPMI-8226, tris(8-quinolinolato)gallium(III) alone): ~900 nM
IC50 (RPMI-8226, with lenalidomide at a constant amount): 500 nM
